In the assay the target is Hp ND-AspRS (non-discriminating aspartyl-tRNA synthetase) (Helicobacter pylori, UniProt P56459). Briefly: inhibition of tRNA aminoacylation with […] L-Asp. Type of assay: biochemical.

This passage reports Ki results from paper PMC3367201 (Nucleic Acids Research, 2012).

Each structure is given as a SMILES string.

Sequence of Hp ND-AspRS (non-discriminating aspartyl-tRNA synthetase) (P56459 whole entry): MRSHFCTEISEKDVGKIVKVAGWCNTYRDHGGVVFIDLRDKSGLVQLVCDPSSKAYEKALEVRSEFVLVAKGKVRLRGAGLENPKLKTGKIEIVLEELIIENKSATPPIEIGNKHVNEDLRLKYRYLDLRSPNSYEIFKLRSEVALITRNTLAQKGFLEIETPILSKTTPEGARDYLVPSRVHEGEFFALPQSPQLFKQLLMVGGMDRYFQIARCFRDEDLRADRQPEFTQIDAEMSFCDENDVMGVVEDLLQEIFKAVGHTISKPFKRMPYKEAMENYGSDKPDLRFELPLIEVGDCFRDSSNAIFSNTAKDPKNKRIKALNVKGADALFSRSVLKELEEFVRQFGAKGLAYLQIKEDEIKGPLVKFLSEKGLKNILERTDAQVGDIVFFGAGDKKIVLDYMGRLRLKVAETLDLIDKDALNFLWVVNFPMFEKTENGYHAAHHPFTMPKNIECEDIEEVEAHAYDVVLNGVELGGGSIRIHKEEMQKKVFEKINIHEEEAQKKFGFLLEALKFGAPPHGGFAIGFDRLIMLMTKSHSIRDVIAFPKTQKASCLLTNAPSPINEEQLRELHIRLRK

For orientation: Ki means a measure of affinity in units of concentration, obtained from inhibition or displacement. For `Nc1ncnc2c1ncn2[C@@H]1O[C@H](COP(=O)(O)OC[C@@H](N)CC(=O)O)[C@@H](O)[C@H]1O` [Asp-ol-AMP], the Ki amounted to 8 µM.
